Earlier results on two molecules are cited in patent US20190352262A1, “New Pleuromutilin Antibiotic Compounds, Compositions and Methods of Use and Synthesis” (YALE UNIVERSITY, priority 2017, published 2019).

Entries after “also recorded” stand apart in the source; their conditions may differ.

The series concerns Gram-positive bacteria. Conditions: background statement, no data of the applicant.

Take `C=C[C@]1(C)C[C@@H](OC(=O)CO)[C@@]2(C)C3C(=O)CC[C@@]3(CC[C@H]2C)[C@H](C)C1O` (single isomer, unassigned; (+)) [(+)-Pleuromutilin, (+)-pleuromutilin]: the “antibacterial activity (growth inhibition of Gram-positive bacteria)” value was “inhibit the growth”.

For `C=C[C@]1(C)C[C@@H](O)[C@]2(C)[C@H](C)CC[C@]3(CCC(=O)[C@H]32)[C@@H](C)[C@@H]1O` [(+)-mutilin], the “antibacterial activity (growth inhibition of Gram-positive bacteria)” value was “not active; also recorded: largely inactive”.
